Measured values from patent US20090004121A1, “Combination of picotamide with nafronyl” (priority 2007, published 2009).
Structures can show the parent of a compound that is named as a salt. Where two headings read alike, the source gives them in different places.

Key:
Type in all cases: cell-based
[1] = test system: Thoracic aortic rings; test: Contracting effect on rat aortic rings (organ bath); conditions: mean ±S.E.M.
Procedure: Thoracic aortic rings obtained from male Wistar rats are carefully cleaned of connective tissue. The aortic rings are suspended in the isolated muscle bath (20 mL). Each segment is suspended under a tension of 1 g in Krebs buffer (NaCl 118 mM, KCl 5.4 mM, CaCl2 2.5 mM, MgCl2.6H2O 1.5 mM, NaHCO3 25 mM, NaH2PO4 1.2 mM, glucose 10 mM; pH 7.4) which was bubbled with O2 95%/CO2 5% at 37° C. in 20 mL organ baths (EMKA Technologies, Paris, France). The muscle tension of aortic rings is isometrically recorded with a force-displacement transducer IT1 (EMKA Technologies, Paris, France). The buffer is renewed at 15 min intervals during the equilibrium period (40 min) before exposing the rings to the TXA2-mimetic U-46619 (20 nM), 8-iso-prostaglandin F2α (1 μM) or serotonin (5-hydroxy-tryptamine, 5-HT, 2 μM). When a stable tension is obtained (15 min), the compound of interest is added at a cumulative increasing concentration to the bath until the tension returned to the baseline value. Tension is recorded with a specific data acquisition program (IOX 1.445, EMKA Technologies, Paris, France). The EC50 value of each drug is assessed for at least 6 concentration-response curves obtained from separate preparations. EC50 is expressed as the concentration which reduces 50% of the tension induced by the contracting agent. The results are expressed as mean ±S.E.M. Nafronyl oxalate was obtained from Sigma-Aldrich; picotamide monohydrate was obtained from the European Directory of Quality of Medicines. […] These values are in line with results obtained in previous studies (S. W. Watts and J. M. Thompson, J Pharmacol Exp Ther 309:165-172, 2004; M. Lohn et al., FASEB J 16:1057-63, 2002).

[2] = test system: rat aorta rings pretreated with 8-iso-prostaglandin F2α; test: Relaxation of rat aortic rings using 8-iso-prostaglandin F2α 1 μM as contracting agent
Procedure: (§1) Thoracic aortic rings obtained from male Wistar rats are carefully cleaned of connective tissue. The aortic rings are suspended in the isolated muscle bath (20 mL). Each segment is suspended under a tension of 1 g in Krebs buffer (NaCl 118 mM, KCl 5.4 mM, CaCl2 2.5 mM, MgCl2.6H2O 1.5 mM, NaHCO3 25 mM, NaH2PO4 1.2 mM, glucose 10 mM; pH 7.4) which was bubbled with O2 95%/CO2 5% at 37° C. in 20 mL organ baths (EMKA Technologies, Paris, France). The muscle tension of aortic rings is isometrically recorded with a force-displacement transducer IT1 (EMKA Technologies, Paris, France). The buffer is renewed at 15 min intervals during the equilibrium period (40 min) before exposing the rings to the TXA2-mimetic U-46619 (20 nM), 8-iso-prostaglandin F2α (1 μM) or serotonin (5-hydroxy-tryptamine, 5-HT, 2 μM). When a stable tension is obtained (15 min), the compound of interest is added at a cumulative increasing concentration to the bath until the tension returned to the baseline value. Tension is recorded with a specific data acquisition program (IOX 1.445, EMKA Technologies, Paris, France). The EC50 value of each drug is assessed for at least 6 concentration-response curves obtained from separate preparations. EC50 is expressed as the concentration which reduces 50% of the tension induced by the contracting agent. The results are expressed as mean ±S.E.M. Nafronyl oxalate was obtained from Sigma-Aldrich; picotamide monohydrate was obtained from the European Directory of Quality of Medicines. Relaxation experiments on aortas precontracted with 8-iso-prostaglandin F2α 1 μM were done with picotamide monohydrate alone in increasing concentrations of 10^−8 M, 10^−7 M, 10^−6 M, 10^−5 M, 10^−4 M, as well as with the same concentrations of picotamide monohydrate in the presence of 1 μM nafronyl.

[3] = test system: Thoracic aortic rings precontracted with serotonin; test: Relaxation of rat aortic rings using serotonin 2 μM as contracting agent; conditions: for EC50: Rattus norvegicus, read-out: EC50 relaxing effect
Procedure: as §1, with “Nafronyl oxalate was confirmed to be a potent serotonin antagonist” for “Relaxation experiments on aortas precontracted”, “an EC50 1.54·10^−8 M for its relaxing effect.” for “8-iso-prostaglandin F2α 1 μM were done with picotamide monohydrate alone in increasing concentrations of 10^−8 M, 10^−7 M, 10^−6 M, 10^−5 M, 10^−4 M, as well as with the same concentrations of picotamide monohydrate in the presence of 1 μM nafronyl.”

Row | EC50 [1] [nM] | EC50 ([2]; drug alone) [nM] | Compound | other results
1 | 1000 ± 100 |  | CCCCC[C@H](O)/C=C/[C@@H]1[C@H](C/C=C\CCCC(=O)O)[C@@H](O)C[C@H]1O [8-iso-PGF2α, 8-iso-prostaglandin F2α] | 
2 | 12.2 ± 2.68 |  | CCCCC[C@H](O)/C=C/[C@@H]1[C@@H](C/C=C\CCCC(=O)O)[C@H]2CO[C@@H]1C2 [U-46619] | 

The next lines start with the compound.

Row | Compound | EC50 [1] [nM] | EC50 ([2]; drug alone) [nM] | other results
3 | CCN(CC)CCOC(=O)C(Cc1cccc2ccccc12)CC1CCCO1 (stereo not drawn) [Nafronyl oxalate, 2-diethylaminoethyl 2-(naphthalen-1-ylmethyl)-3-(oxolan-2-yl)propanoate] |  | 3880 | EC50 ([3]; drug alone): 15.4 nM; EC50 ([3]; in the presence of 10^−6 M picotamide): 13.3 nM
4 | COc1ccc(C(=O)NCc2cccnc2)cc1C(=O)NCc1cccnc1 [Picotamide monohydrate, N,N′-bis-(3-picolyl)-4-methoxy-isophthalamide] |  | 16400 | EC50 ([2]; together with 10^−6 M nafronyl oxalate): 2340 nM; tension reduction ([3]; 10^−5 M picotamide): 30%
5 | NCCc1c[nH]c2ccc(O)cc12 [serotonin, 5-hydroxy-tryptamine] | 980 ± 90 |  | 
